The results in this text go back to paper PMC9130233, “An inhibitor of RORγ for chronic pulmonary obstructive disease treatment” (Scientific Reports, 2022).

Like-named read-outs stand apart in the source and are kept apart here. A value given as a limit tells only on which side of the number the result lay.

Data set [1] has as its system Cerep Panel of receptors, ion channels and enzymes. The experiment in a line: Cerep panel of receptors (binding/functional assays). Set-up: key: NSE No significant effect; V wk very weak (very low-level agonist activity seen with mPPARγ). The conditions noted are these: at 10 µM, except targets listed in the next line. The text has this: Based on the homology of the ligand binding domains, 3 different isoforms of ROR (hRORα, hRORβ and hRORγ) are reported. Small variations in the LBD regions possibly lead to differences in competitive binding between the nuclear receptors of the ROR isoforms (Fig. 1b). Similar to the assessment of RORγ binding assay, TR-FRET binding assays were also used to assess the affinity of PCCR-1 for other ROR isoforms. […] This was reconfirmed in cellular functional assays for the selected isoforms and nuclear receptors using Gal4 DBD with luciferase reporter system from Indigo (PA, USA). […] In addition, both cellular agonist and antagonist effects as well as for enzyme activity were evaluated with a known reference compound for each target, using a radiolabeled method (Eurofins Cerep, France, Table 1).

In data set [2] the test system is IL-17 from mouse BAL cells. As to the kind of experiment: Ex vivo IL-17 release, cultured BAL cells from cigarette smoke exposed mice. The conditions noted are these: BAL cells from CS exposed mice. Type of data set: cell-based. The protocol:
The effect of PCCR-1 was evaluated ex vivo using BALf cells from an acute cigarette smoke induced animal model. Animals were exposed to cigarette smoke for 7 days and BALf cells were collected and treated with different doses of PCCR-1 under various stimulatory conditions. […] Stimulation by LPS may represent the inflammatory state during a COPD exacerbation, supporting a potential benefit of PCCR-1 in this disease state.
C57BL/6 mice were exposed to as per above mentioned protocol. On 7th day, animals were sacrificed and a tracheal cannula was inserted. Three times via the trachea, 1 mL of plain RPMI medium was instilled and recovered by gentle manual aspiration. The recovered BALf was centrifuged, the cell pellet washed twice and finally re-suspended in 5% FBS- RPMI. Isolated BAL cells were pre-incubated with different concentration of PCCR-1 for 60 min, followed by stimulating with 1 µg/ml soluble mouse anti-CD3 and 3 µg/ml mouse anti-CD28 mAbs and/or 100 ng/ml of LPS and incubated for 24-48 h at 37 °C. The supernatant was used for estimating IL-17 by ELISA.

Data set [3] has as its system IL-17 release from COPD patient PBMCs. The experiment in a line: IL-17 release, PBMC from COPD patients. Type of data set: cell-based. Particulars: Homo sapiens, TCR stimulated, n = 16, read-out: IL-17 IC50, COPD patient's sample: PBMC. Here is the method: Whole blood and BAL samples from COPD patients were obtained from Multispecialty hospital, Mumbai post approval from ethics committee and informed consent of patients. 30–40 mL Broncho alveolar lavage (BALf) was collected per patient and stored in ice. Blood was collected in heparin vaccutainer as per approved protocol. Both the samples were processed within 2 h of collection. BALF was passed through 100-µm and 40-µm cell strainer to remove debris and mucus, the samples were centrifuged and the cells were re-suspended in RPMI 1640 complete medium. PBMCs from blood were isolated using Histopaque-1077 by density gradient centrifugation. Isolated BAL cells and PBMCs were seeded in 96 well coated with 10 µg/ml anti-CD3 and 2 µg/ml anti-CD2. Cells were further treated with different concentration of test compound for 60 min followed by stimulation with 20 µg/ml anti-CD28 and incubated for 48–72 h. The supernatant was used for estimating IL-17 by ELISA.

Data set [4] has as its system total leukocytes, neutrophils and macrophages in BAL fluid of cigarette smoke exposed mice. As to the kind of experiment: Acute cigarette smoke induced pulmonary inflammation mice model. Type of data set: in vivo, mouse. The text has this: Cigarette smoke exposure for 7 days caused significant increase in the total cell count in BAL fluid, including leukocytes, neutrophils and macrophages as compared to an air exposed control group.
Male C57BL/6 mice aged 8–10 weeks were obtained from the animal facility of Glenmark Pharmaceuticals Ltd. All animal experiments were approved by IAEC (institutional Animal Ethics Committee) as per the guideline set up by The Committee for the Purpose of Control and Supervision of Experiments on Animals (CPCSEA), India (CPCSEA is a statutory Committee of Department of Animal Husbandry and Dairying (DAHD), Ministry of Fisheries, Animal Husbandry and Dairying (MoFAH&D), India and constituted under the Prevention of Cruelty to Animals (PCA) Act, 1960., India). All animal experiments and procedures were performed in accordance with CPCSEA and IAEC guidelines and regulations (Registration number 231/2000/CPCSEA).In addition to that, all animal experimentation complies with the guidelines of Animal Research: Reporting In Vivo Experiments (ARRIVE). Male C57BL/6 mice were exposed to either room air or cigarette smoke (CS) from 10 cigarettes (Kentucky Research Cigarettes 3R4F) for 50 min, twice daily for 7 days in a whole body box exposure system (SIU24, ProMech Lab Holding AB, Sweden). […] All aspirates of BAL were pooled and total number of cells were determined using a hemocytometer. […]

A short description of data set [5]: Drug concentrations on day-8 in CS-model mice after 7-day intranasal treatment. Particulars: C57BL/6, mouse, other: intranasal; for concentration at 1 h: CS exposed mice. Type of data set: in vivo. The protocol: Additionally, after 7-day intranasal treatment with PCCR-1 in the CS-model in mice as described above, blood, BAL fluid and lung tissues were collected on day-8 approximately 1 h after the last treatment dose for estimating the drug concentrations for PK-PD correlation.

The IC50 is the concentration that gives 50% inhibition. For the compound `CCn1c(C(C)(C)Oc2ccc(F)cc2F)nc2cc(NC(=O)Cc3ccc(S(=O)(=O)CC)cc3)ccc21` [PCCR-1], in data set [1], the “Cerep Panel of receptors (binding/functional assays)” value was “NSE at 10 µM except#”. Further, the IC50 in data set [2] (LPS induced, read-out: IL-17 IC50, Mouse BAL cells: LPS) was determined as 802 nM; in data set [2] (anti-CD3 + anti-CD28 induced, read-out: IL-17 IC50, Mouse BAL cells: CD3+CD28), 903 nM; in data set [2] (basal, read-out: IL-17 IC50, Mouse BAL cells: Basal), 873 nM; in data set [3] it was 336 nM. In data set [4] (intranasal once a day for 7 days, between 1 µg and 50 µg/animal), the “inhibition of total leukocytes in BAL fluid” value is listed as “dose dependent inhibition”. Also, in data set [4] (intranasal, 10, 30, 50 and 100 µg per mouse), the “cigarette smoke mediated increase in neutrophil and macrophage counts in BAL fluid” value is given as “significantly obtunded”. Also, the concentration at 1 h came to 25.7 nM in data set [5] (BAL fluid, day-8, intranasal 1 µg/animal, read-out: Total concentration BAL fluid); 160 nM in data set [5] (BAL fluid, day-8, intranasal 10 µg/animal, read-out: Total concentration BAL fluid); 390 nM in data set [5] (BAL fluid, day-8, intranasal 30 µg/animal, read-out: Total concentration BAL fluid); 779 nM in data set [5] (BAL fluid, day-8, intranasal 50 µg/animal, read-out: Total concentration BAL fluid); 1320 nM in data set [5] (BAL fluid, day-8, intranasal 100 µg/animal, read-out: Total concentration BAL fluid); 5480 nM in data set [5] (lung, day-8, intranasal 1 µg/animal, read-out: Total concentration Lung). The concentration at 1 h in data set [5] (lung, day-8, intranasal 10 µg/animal, read-out: Total concentration Lung) is 53600 nM; in data set [5] (lung, day-8, intranasal 30 µg/animal, read-out: Total concentration Lung) it was 171000 nM; in data set [5] (lung, day-8, intranasal 50 µg/animal, read-out: Total concentration Lung), 379000 nM; in data set [5] (lung, day-8, intranasal 100 µg/animal, read-out: Total concentration Lung), 608000 nM; in data set [5] (plasma, day-8, intranasal 1 µg/animal, read-out: Total concentration Plasma), less than 1.85 nM; in data set [5] (plasma, day-8, intranasal 10 µg/animal, read-out: Total concentration Plasma), less than 1.85 nM. In addition, the concentration at 1 h in data set [5] (plasma, day-8, intranasal 30 µg/animal, read-out: Total concentration Plasma) stood at 20.6 nM; in data set [5] (plasma, day-8, intranasal 50 µg/animal, read-out: Total concentration Plasma), 33.2 nM; in data set [5] (plasma, day-8, intranasal 100 µg/animal, read-out: Total concentration Plasma) it was 84.7 nM. Besides, the Kp at 1 h in data set [5] (lung/plasma, CS-model mice, 7-day intranasal treatment, all tested doses (1 to 100 µg), read-out: concentration in lung as compared to the plasma) is more than 1000.
